Test system: retinal neovascularization
Assay: rat pup model of retinopathy of prematurity (oxygen-induced retinopathy)
Assay type: in vivo
Conditions: for inhibition of retinal neovascularization: newborn rat pups exposed to varying oxygen
Experimental: Anecortave acetate was tested for its angiostatic efficacy in a rat pup model of retinopathy of prematurity (Penn, at al., Investigative Ophthalmology & Visual Science, “The Effect of an Angiostatic Steroid on Neovascularization in a Rat Model of Retinopathy of Prematurity,” Vol. 42(1):283-290, January 2001). Newborn rat pups were placed in an atmosphere of varying oxygen content. The rats received a single intravitreal injection of vehicle or anecortave acetate (500 μg) upon return to room air (day 14) or 2 days later (day 16). There was significant retinal neovascularization in the rats that received vehicle injections.

Q: What does the source list for `CC(=O)OCC(=O)[C@@]1(O)CC[C@H]2[C@@H]3CCC4=CC(=O)CC[C@]4(C)C3=CC[C@@]21C` [Anecortave acetate, 4,9(11)-pregnadien-17α,21-diol-3,20dione-21-acetate]?
A: preretinal neovascularization (neovascular score) (local administration, rat model of oxygen-induced retinopathy, FIG. 1): inhibits preretinal neovascularization; inhibition of retinal neovascularization (single intravitreal injection 500 μg 2 days after return to room air (day 16)): 50%; inhibition of retinal neovascularization (single intravitreal injection 500 μg upon return to room air (day 14)): 66%
